The source of these data is patent US11401234B2, “Deuterated compounds and uses thereof” (priority 2012, dated 2022).

Series [1] concerns Human T cell leukaemia cells (Jurkat). Put plainly: Inhibition of cell proliferation in air or 1% oxygen (Coulter Counter relative cell number). Conditions: 4 days, range of concentrations. Type of series: cell-based.
Another series deals with 22Rv1 prostate tumours. The series is described as follows: Tumour oxygenation (pO2) by Oxylite oxygen electrode probe in xenografts. Type of series: in vivo, SCID mice. Here is the method: • 22Rv1 cells grow as a solid tumour on the backs of SCID mice. • Tumour oxygenation was measured over 28 days in vehicle and bicalutamide (2 mg/kg/day) treated mice (see Table 3 above). • Bicalutamide caused a drop in tumour oxygenation (as shown in FIG. 10); from ˜15.3 mmHg (2% oxygen) to 2.0 mmHg (0.3% oxygen) at day 7 and to 0.5 mmHg (0.1% oxygen) at day 14. […] However, during the subsequent week (probably related to tumour size) the median oxygen levels […] to about 3 mmHg (0.4% oxygen) and do indicate recovery.

Another series deals with 22Rv1 xenograft tumours. Put plainly: 22Rv1 xenograft tumour growth (calliper tumour volumes). It counts as in vivo, SCID mice. The conditions noted are these: 2 mg/kg/day oral gavage. The text has this:
(ii) Effect of Bicalutamide on Blood Vessels in 22Rv1 Tumour Xenografts • Dorsal skin folds were secured using window chambers onto the backs of male SCID mice (>8 weeks). […] Tumour volume was normalised to day 6 (ie pre-prodrug addition).

A further series has as its system LNCaP xenograft tumours. The series is described as follows: LNCaP xenograft tumour growth (calliper tumour volumes). It counts as in vivo, SCID mice.

SMILES strings stand for the structures. Values joined by “and” are separate entries in the source; they are usually repeats but may differ in a detail not shown here. Identical values can stand only once.

`[2H]C([2H])([2H])N(CCNc1ccc(NCCN(C([2H])([2H])[2H])C([2H])([2H])[2H])c2c1C(=O)c1c(O)ccc(O)c1C2=O)C([2H])([2H])[2H]` [OCT1001, 1,4-bis-{[2-(deuterated-d6-dimethylamino)ethyl]amino)-5,8-dihydroxy-anthracene-9,10-dione]: in the series on A549 cells (after 24 h post exposure recovery in drug free medium, normal oxygenation), the “loss of intracellular fluorescence attributable to metabolite, compared with AQ4” value is reported as “reduced loss”. Further, the “cellular accumulation of intracellular fluorescence attributable to metabolite, compared with AQ4” value in the series with A549 cells (after 4 day prodrug exposure under 1% oxygen) is reported as “reduced cellular accumulation”.

In the case of `COc1cc([C@@H]2c3cc4c(cc3[C@@H](O[C@@H]3O[C@@H]5CO[C@@H](C)O[C@H]5[C@H](O)[C@H]3O)[C@H]3COC(=O)[C@H]23)OCO4)cc(OC)c1O` [VP-16], the “inhibition of cell proliferation (cytostatic activity, relative cell number)” value in series [1] is listed as “hypoxia does not modify the cytostatic action”.

In the case of `CC(O)(CS(=O)(=O)c1ccc(F)cc1)C(=O)Nc1ccc(C#N)c(C(F)(F)F)c1` (stereo not drawn) [Bicalutamide], the “Mean pO2 ± SD” value in the series on 22Rv1 prostate tumours (day 0 (before commencement of treatment), 2 mg/kg/day oral gavage group, 2 mg/kg/day) is 15.277 ± 11.254 mmHg; in the series with 22Rv1 prostate tumours (day 7 of treatment, 2 mg/kg/day oral gavage, 2 mg/kg/day), 2.0 mmHg and 1.996 ± 1.989 mmHg; in the series on 22Rv1 prostate tumours (day 14 of treatment, 2 mg/kg/day oral gavage, 2 mg/kg/day), 0.5 mmHg and 0.486 ± 0.107 mmHg; in the series with 22Rv1 prostate tumours (day 21 of treatment, 2 mg/kg/day oral gavage), 1.291 ± 0.291 mmHg; in the series with 22Rv1 prostate tumours (day 28 of treatment, 2 mg/kg/day oral gavage) it was 11.905 ± 0.861 mmHg. Also, the tumour oxygenation in the series on 22Rv1 prostate tumours (day 0, 2 mg/kg/day group) is 2 % oxygen; in the series on 22Rv1 prostate tumours (day 7, 2 mg/kg/day), 0.3 % oxygen; in the series with 22Rv1 prostate tumours (day 14, 2 mg/kg/day), 0.1 % oxygen. Moreover, the “time to reach four times the volume at the start of treatment” value in the series with 22Rv1 xenograft tumours turned out to be 18.5 ± 0.8 days. In addition, the Growth Delay in the series on 22Rv1 xenograft tumours (versus vehicle, time to four times start volume) is 4.5 days; with LNCaP xenograft tumours (versus vehicle, time to reach twice the treatment size) it was 5.1 days and 5 ± 3.82 days. Besides, the “Time to 2x start volume” value in the series on LNCaP xenograft tumours (bicalutamide 2 mg/kg/day oral 28 days, OCT1002 50 mg/kg i.p. single dose day 7) was determined as 16.2 ± 1.94 days.
